Experiment [1] concerns the target T1, Proto-oncogene tyrosine-protein kinase Src (Homo sapiens, UniProt P12931). Briefly: Binding affinity to p60 src SH2 domain.
In experiment [2] the target is Tyrosine-protein kinase ABL1 (Homo sapiens, UniProt P00519). Briefly: Inhibition of Abl SH2 domain binding PDGF receptor.
The nature of experiment [3]: Inhibition of PLC(C) SH2 domain binding to PDGF receptor.
The target in experiment [4] is T2, Tyrosine-protein phosphatase non-receptor type 11 (Homo sapiens, UniProt Q06124).
T2 sequence (Q06124 whole entry): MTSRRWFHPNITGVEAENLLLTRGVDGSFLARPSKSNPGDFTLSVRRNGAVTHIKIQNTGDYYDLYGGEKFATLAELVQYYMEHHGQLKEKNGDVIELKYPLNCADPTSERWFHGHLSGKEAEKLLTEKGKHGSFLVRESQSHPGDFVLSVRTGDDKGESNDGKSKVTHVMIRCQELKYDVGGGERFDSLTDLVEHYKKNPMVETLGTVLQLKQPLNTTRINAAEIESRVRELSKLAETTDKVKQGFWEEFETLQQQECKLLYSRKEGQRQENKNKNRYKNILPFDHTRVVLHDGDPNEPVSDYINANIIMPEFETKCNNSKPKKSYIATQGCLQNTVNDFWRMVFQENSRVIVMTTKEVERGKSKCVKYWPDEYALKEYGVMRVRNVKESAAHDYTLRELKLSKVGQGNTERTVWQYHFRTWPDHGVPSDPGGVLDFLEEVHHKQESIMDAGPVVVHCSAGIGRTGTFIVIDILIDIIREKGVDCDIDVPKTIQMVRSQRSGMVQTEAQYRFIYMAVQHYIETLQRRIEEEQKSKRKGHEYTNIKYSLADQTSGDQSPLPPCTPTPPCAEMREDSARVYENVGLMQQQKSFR
Briefly: Inhibition of Syp(N) SH2 domain block binding to PDGF receptor.

Experiment [5] concerns the target T1, Proto-oncogene tyrosine-protein kinase Src. Briefly: Inhibition of src SH2 domain binding to PDGF receptor.
Experiment [6] addresses Growth factor receptor-bound protein 2 (Homo sapiens) (UniProt P62993). Briefly: Inhibition of Grb2 SH2 domain binding to PDGF receptor.
For experiment [7] the target is unchanged. The experiment can be described thus: Inhibition of Grb2 SH2 domain binding to PDGF receptor 100 uM.

The text below walks through data of ChEMBL document CHEMBL1129087, “Novel phosphotyrosine mimetics in the design of peptide ligands for pp60src SH2 domain” (Bioorg Med Chem Lett, 1996).

T1 sequence (P12931 2-536 limits assumed): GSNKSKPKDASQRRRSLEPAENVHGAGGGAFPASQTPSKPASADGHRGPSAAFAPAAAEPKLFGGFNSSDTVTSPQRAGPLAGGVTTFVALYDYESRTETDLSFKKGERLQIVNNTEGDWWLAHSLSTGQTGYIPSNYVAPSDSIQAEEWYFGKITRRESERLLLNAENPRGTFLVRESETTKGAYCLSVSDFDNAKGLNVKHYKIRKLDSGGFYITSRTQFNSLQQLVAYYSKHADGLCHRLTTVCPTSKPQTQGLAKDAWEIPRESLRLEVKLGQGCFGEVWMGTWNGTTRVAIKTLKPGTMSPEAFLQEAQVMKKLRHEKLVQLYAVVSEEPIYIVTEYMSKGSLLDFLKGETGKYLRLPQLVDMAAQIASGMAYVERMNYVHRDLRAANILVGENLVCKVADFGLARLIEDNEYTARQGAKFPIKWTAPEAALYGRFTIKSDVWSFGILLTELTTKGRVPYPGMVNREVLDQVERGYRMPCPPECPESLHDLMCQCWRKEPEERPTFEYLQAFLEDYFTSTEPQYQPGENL
Tyrosine-protein kinase ABL1, sequence (P00519 whole entry, the tested form may be a part): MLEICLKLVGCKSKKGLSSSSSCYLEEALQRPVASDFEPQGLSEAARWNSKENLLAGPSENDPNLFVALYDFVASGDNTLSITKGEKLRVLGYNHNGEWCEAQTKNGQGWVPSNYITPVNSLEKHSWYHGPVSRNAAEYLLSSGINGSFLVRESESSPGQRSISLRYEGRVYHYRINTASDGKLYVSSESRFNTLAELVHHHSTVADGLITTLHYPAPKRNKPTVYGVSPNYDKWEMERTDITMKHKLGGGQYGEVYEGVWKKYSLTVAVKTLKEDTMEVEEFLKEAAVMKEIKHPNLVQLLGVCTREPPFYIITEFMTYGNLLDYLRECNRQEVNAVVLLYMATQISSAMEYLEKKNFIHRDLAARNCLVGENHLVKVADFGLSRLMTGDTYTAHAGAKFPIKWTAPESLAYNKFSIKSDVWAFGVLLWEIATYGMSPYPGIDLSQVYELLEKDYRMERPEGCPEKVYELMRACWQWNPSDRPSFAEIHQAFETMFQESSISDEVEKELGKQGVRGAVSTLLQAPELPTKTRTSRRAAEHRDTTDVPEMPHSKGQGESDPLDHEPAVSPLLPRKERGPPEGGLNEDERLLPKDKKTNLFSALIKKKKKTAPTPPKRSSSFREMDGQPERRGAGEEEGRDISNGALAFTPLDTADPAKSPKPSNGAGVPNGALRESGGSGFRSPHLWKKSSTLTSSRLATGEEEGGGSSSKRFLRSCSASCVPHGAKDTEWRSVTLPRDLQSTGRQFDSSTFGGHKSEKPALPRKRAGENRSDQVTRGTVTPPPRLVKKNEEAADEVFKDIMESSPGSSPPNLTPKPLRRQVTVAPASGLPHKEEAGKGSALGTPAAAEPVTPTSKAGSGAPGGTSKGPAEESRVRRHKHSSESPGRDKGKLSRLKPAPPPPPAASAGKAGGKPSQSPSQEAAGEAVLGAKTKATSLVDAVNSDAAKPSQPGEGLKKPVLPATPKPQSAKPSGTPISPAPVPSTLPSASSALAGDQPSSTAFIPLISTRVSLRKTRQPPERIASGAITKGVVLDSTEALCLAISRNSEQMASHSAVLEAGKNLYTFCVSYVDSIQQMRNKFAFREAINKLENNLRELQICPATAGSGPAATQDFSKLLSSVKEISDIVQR
Growth factor receptor-bound protein 2 (Homo sapiens), sequence (P62993 whole entry, looked up, the tested form may be a part): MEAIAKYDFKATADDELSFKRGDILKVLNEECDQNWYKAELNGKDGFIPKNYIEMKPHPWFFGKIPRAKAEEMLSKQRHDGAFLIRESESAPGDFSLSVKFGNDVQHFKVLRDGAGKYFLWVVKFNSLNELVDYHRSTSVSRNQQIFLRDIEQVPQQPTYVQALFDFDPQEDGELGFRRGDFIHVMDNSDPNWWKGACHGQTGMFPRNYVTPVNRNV

As to `NC(=O)[C@H](Cc1c[nH]c2ccccc12)NC(=O)C(CCC(=O)O)NC(=O)CCc1ccc(OP(=O)(O)O)cc1` (some centres not stated), in experiment [1], the half-inhibitory concentration (IC50) (in general, the concentration that inhibits the measured activity by half) was 21.3 µM. On the same count and under the same terms, the same measure for `CC[C@H](C)[C@H](NC(=O)[C@H](CCC(=O)O)NC(=O)[C@H](CCC(=O)O)NC(=O)C(Cc1ccc(OP(=O)(O)O)cc1)c1cccc2ccccc12)C(=O)N[C@@H](CCC(=O)O)C(=O)O` (stereo in doubt; form 2): 2.6 µM.

`NC(=O)[C@H](Cc1c[nH]c2ccccc12)NC(=O)C(CCC(=O)O)NC(=O)/C=C/c1ccc(OP(=O)(O)O)cc1` (some centres not stated) registered an IC50 in experiment [1] of 30 µM. The same measure, in the same setting: then `Cc1cc(OP(=O)(O)O)cc(C)c1CCC(=O)NC(CCC(=O)O)C(=O)N[C@@H](Cc1c[nH]c2ccccc12)C(N)=O` (some centres not stated), with 30 µM; and `CC[C@H](C)[C@H](NC(=O)[C@H](CCC(=O)O)NC(=O)[C@H](CCC(=O)O)NC(=O)C(Cc1ccc(OP(=O)(O)O)cc1)c1cccc2ccccc12)C(=O)N[C@@H](CCC(=O)O)C(=O)O` (stereo in doubt; form 1), with 7.3 µM.

Take `CC[C@H](C)[C@H](NC(=O)[C@H](CCC(=O)O)NC(=O)[C@H](CCC(=O)O)NC(=O)/C=C/c1ccc(OP(=O)(O)O)cc1)C(=O)N[C@@H](CCC(=O)O)C(=O)O`: the IC50 in experiment [1] amounted to 5.5 µM. With `CC[C@H](C)[C@H](NC(=O)[C@H](CCC(=O)O)NC(=O)[C@H](CCC(=O)O)NC(=O)[C@H](C)Cc1ccc(OP(=O)(O)O)cc1)C(=O)N[C@@H](CCC(=O)O)C(=O)O`, the IC50 in experiment [1] worked out at 20 µM. Regarding `NC(=O)[C@H](Cc1c[nH]c2ccccc12)NC(=O)C(CCC(=O)O)NC(=O)C(Cc1ccc(OP(=O)(O)O)cc1)c1cccc2ccccc12` (some centres not stated), the IC50 in experiment [1] is 30 µM.

`CC[C@H](C)[C@H](NC(=O)C(CCC(=O)O)NC(=O)C(CCC(=O)O)NC(=O)C(Cc1ccc(OP(=O)(O)O)cc1)c1cccc(O)c1)C(=O)N[C@@H](CCC(=O)O)C(=O)O` (stereo in doubt) came in with a concentration for half-maximal inhibition (IC50) in experiment [1] of 3.3 µM. With `CC(=O)N[C@@H](Cc1ccc(OP(=O)(O)O)cc1)C(=O)NC(CCC(=O)O)C(=O)N[C@@H](Cc1c[nH]c2ccccc12)C(N)=O` (some centres not stated), in experiment [1], the half-inhibitory concentration (IC50) amounted to 4 µM. `CC[C@H](C)[C@H](NC(=O)[C@H](CCC(=O)O)NC(=O)[C@H](CCC(=O)O)NC(=O)/C(=C/c1ccc(OP(=O)(O)O)cc1)C(=O)O)C(=O)N[C@@H](CCC(=O)O)C(=O)O`: the concentration for half-maximal inhibition (IC50) in experiment [1] was determined as 5 µM. As to `CC[C@H](C)[C@H](NC(=O)[C@H](CCC(=O)O)NC(=O)[C@H](CCC(=O)O)NC(=O)C(Cc1ccc(OP(=O)(O)O)cc1)c1ccccc1)C(=O)N[C@@H](CCC(=O)O)C(=O)O` (stereo in doubt) [listing 1 of 2 here], the IC50 in experiment [2] is greater than 100 µM; in experiment [3], greater than 100 µM; in experiment [4] it was greater than 100 µM; in experiment [5] it was 7.35 µM; in experiment [1] it was 1.9 µM. Compound `CC[C@H](C)[C@H](NC(=O)[C@H](CCC(=O)O)NC(=O)[C@H](CCC(=O)O)NC(=O)C(Cc1ccc(OP(=O)(O)O)cc1)c1ccc2ccccc2c1)C(=O)N[C@@H](CCC(=O)O)C(=O)O` (stereo in doubt) came in with a half-maximal inhibitory concentration (IC50) in experiment [1] of 2.8 µM. Take `CC[C@H](C)[C@H](NC(=O)[C@H](CCC(=O)O)NC(=O)[C@H](CCC(=O)O)NC(=O)C(Cc1ccc(OP(=O)(O)O)cc1)c1ccccc1)C(=O)N[C@@H](CCC(=O)O)C(=O)O` (stereo in doubt) [listing 2 of 2 here]: the concentration for half-maximal inhibition (IC50) in experiment [6] is greater than 100 µM. Compound `NC(=O)[C@H](Cc1c[nH]c2ccccc12)NC(=O)C(CCC(=O)O)NC(=O)C(Cc1ccc(OP(=O)(O)O)cc1)c1ccccc1` (some centres not stated) registered an IC50 in experiment [1] of 28 µM. Regarding `CC[C@H](C)[C@H](NC(=O)[C@H](CCC(=O)O)NC(=O)[C@H](CCC(=O)O)NC(=O)[C@@H](Cc1ccc(OP(=O)(O)O)cc1)NC(C)=O)C(=O)N[C@@H](CCC(=O)O)C(=O)O`, the 50% inhibitory concentration (IC50) is 15.3 µM in experiment [2], greater than 100 µM in experiment [3] and greater than 100 µM in experiment [4]. Further, the inhibition (commonly the relative decrease from the control value, in per cent) in experiment [7] came to 45.2%. In turn, `CC[C@H](C)[C@H](NC(=O)[C@H](CCC(=O)O)NC(=O)[C@H](CCC(=O)O)NC(=O)C(Cc1ccc(OP(=O)(O)O)cc1)c1ccc2ccccc2c1)C(=O)N[C@@H](CCC(=O)O)C(=O)O` (single isomer, unassigned; isomer 2) had an IC50 in experiment [1] of 4.5 µM.

On to `CC[C@H](C)[C@H](NC(=O)[C@H](CCC(=O)O)NC(=O)[C@H](CCC(=O)O)NC(=O)CCc1ccc(OP(=O)(O)O)cc1)C(=O)N[C@@H](CCC(=O)O)C(=O)O`, for which the IC50 in experiment [1] was 3.4 µM. As to `CC[C@H](C)[C@H](NC(=O)[C@H](CCC(=O)O)NC(=O)[C@H](CCC(=O)O)NC(=O)[C@@H](CC(=O)O)Cc1ccc(OP(=O)(O)O)cc1)C(=O)N[C@@H](CCC(=O)O)C(=O)O`, the IC50 in experiment [1] worked out at 0.35 µM. Still for that read-out and setting: then `C[C@H](Cc1ccc(OP(=O)(O)O)cc1)C(=O)NC(CCC(=O)O)C(=O)N[C@@H](Cc1c[nH]c2ccccc12)C(N)=O` (some centres not stated), with 13.4 µM; and `CC[C@H](C)[C@H](NC(=O)[C@H](CCC(=O)O)NC(=O)[C@H](CCC(=O)O)NC(=O)C(Cc1ccc(OP(=O)(O)O)cc1)c1ccccc1O)C(=O)N[C@@H](CCC(=O)O)C(=O)O` (some centres not stated), with 1.4 µM; and `CC[C@H](C)[C@H](NC(=O)[C@H](CCC(=O)O)NC(=O)[C@H](CCC(=O)O)NC(=O)CCc1c(C)cc(OP(=O)(O)O)cc1C)C(=O)N[C@@H](CCC(=O)O)C(=O)O`, with 4.5 µM. With `CC[C@H](C)[C@H](NC(=O)[C@H](CCC(=O)O)NC(=O)[C@H](CCC(=O)O)NC(=O)C(Cc1ccc(OP(=O)(O)O)cc1)c1ccccc1)C(=O)N[C@@H](CCC(=O)O)C(=O)O` (single isomer, unassigned; isomer 2), the IC50 in experiment [1] was determined as 9.3 µM. In the case of `NC(=O)[C@H](Cc1c[nH]c2ccccc12)NC(=O)C(CCC(=O)O)NC(=O)C(Cc1ccc(OP(=O)(O)O)cc1)c1ccc2ccccc2c1` (some centres not stated), the IC50 in experiment [1] was 40 µM. The compound `CC[C@H](C)[C@H](NC(=O)C(CCC(=O)O)NC(=O)C(CCC(=O)O)NC(=O)C(Cc1ccc(OP(=O)(O)O)cc1)c1cccc(O)c1)C(=O)N[C@@H](CCC(=O)O)C(=O)O` (single isomer, unassigned; isomer 1) had an IC50 in experiment [1] of 2.1 µM.
